The source of these data is patent US11220491B2, “Photoprotective compositions containing Malassezia-derived compounds and/or chemical analogs thereof” (Versicolor Technologies, LLC, priority 2018, dated 2022).

Like-named read-outs stand apart in the source and are kept apart here.

For series [1], the target named is T1, arylhydrocarbon receptor (AhR) (Homo sapiens, UniProt P35869).
T1 sequence (P35869 11-848): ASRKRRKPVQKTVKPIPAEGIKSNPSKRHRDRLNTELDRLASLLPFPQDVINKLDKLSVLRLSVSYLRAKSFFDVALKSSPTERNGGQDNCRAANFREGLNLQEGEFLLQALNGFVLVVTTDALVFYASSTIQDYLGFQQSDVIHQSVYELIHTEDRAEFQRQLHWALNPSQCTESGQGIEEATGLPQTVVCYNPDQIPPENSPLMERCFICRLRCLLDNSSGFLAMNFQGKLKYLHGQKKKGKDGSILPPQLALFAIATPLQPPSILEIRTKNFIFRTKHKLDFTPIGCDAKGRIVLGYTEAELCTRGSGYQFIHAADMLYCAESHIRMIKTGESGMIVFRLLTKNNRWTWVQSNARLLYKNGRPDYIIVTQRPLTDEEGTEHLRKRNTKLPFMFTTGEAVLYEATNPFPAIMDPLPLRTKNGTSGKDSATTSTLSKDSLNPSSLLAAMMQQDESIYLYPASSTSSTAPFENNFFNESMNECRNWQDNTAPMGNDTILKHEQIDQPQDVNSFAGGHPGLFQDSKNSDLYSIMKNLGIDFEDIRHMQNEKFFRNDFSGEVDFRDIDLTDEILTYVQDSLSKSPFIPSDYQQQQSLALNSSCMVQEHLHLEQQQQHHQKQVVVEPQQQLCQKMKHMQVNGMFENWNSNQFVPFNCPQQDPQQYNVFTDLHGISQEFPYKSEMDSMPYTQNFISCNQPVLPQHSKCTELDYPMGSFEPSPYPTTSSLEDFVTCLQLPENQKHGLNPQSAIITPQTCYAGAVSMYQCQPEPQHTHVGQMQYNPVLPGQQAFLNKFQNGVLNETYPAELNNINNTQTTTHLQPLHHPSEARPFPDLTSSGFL
As to the kind of experiment: HepG2-AhR-Luciferase assay. Conditions: EC50 (uM), 24 hours of treatment.
Experimental: HepG2-AhR-Luc cells were purchased from Pharmaron, One-Glo Luciferase assay system was purchased from Promega. DMEM was purchased from Hyclone, and penicillin/streptomycin was purchased from Solabio.
Culture media for stably transfected HepG2 cells was prepared by supplementing DMEM with high glucose and L-glutamine, as well as 10% FBS.
HepG2-AhR-Luc cells were cultured in T-75 flasks at 37° C., 5% CO2, and 95% relative humidity. Cells were allowed to reach 80-90% confluence before detachment and splitting.
Cultivated cells were rinsed with 5 mL PBS. PBS was aspirated away, 1.5 mL trypsin was added to the flask, and cells were incubated at 37° C. for approximately 5 minutes or until the cells detached and floated. Trypsin was inactivated by adding excess serum-containing media.
The cell suspension was transferred to a conical tube and centrifuged at 120 g for 10 minutes to pellet the cells. Cells were resuspended in seeding media at a proper density. 40 μL of cells were transferred to a 384-well culture plate (5×10^3 cells/well). Plates were placed in the incubator at 37° C. for 24 hours.
Afterward, stock solutions of test compounds and omeprazole positive control were prepared. Compound solutions were transferred into the assay plate using Echo550. The plate was then placed back into the incubator for compound treatment.
Later, after 24 hours of treatment, the plate was removed from the incubator and allowed to cool at ambient temperature. 30 μL One-Glo reagent equal to that of the culture medium was added in each well. Cells were allowed to lyse for at least 3 minutes, and then measured in a luminometer.
Dose responses were graphed using the non-linear regression analysis in XLfit and EC50 values were also calculated.

Another series has as its system MelanoDerm™ Skin Model. As to the kind of experiment: MelanoDerm Study 2, melanin assay (Example 19). Format: cell-based, human. Conditions: 500 μM, 7-day period. The method, then: The study also evaluated the potential dermal irritation induced by each test article as measured by the conversion of MTT by MelanoDerm™ tissues after repeated exposures to the test articles, over the 7 day treatment period.
The test articles, Malassezin (CV-8684), Compound B (CV-8877), Compound E (AB12508), Compound H (AB12509), an unknown composition, Compound A5 (CV-8819), and 052 (AB12976), were prepared by diluting the stock concentrations with EPI-100-LLMM to final concentrations of 200 μM and 500 μM. The test article, Compound I (CV-8686), was prepared by diluting the stock concentration to 500 μM. All of the dilutions were vortexed for at least 1 minute, and then heated in a water bath at 37°±1° C. for 15 minutes. The dilutions were then vortexed again for at least 1 minute prior to being dosed on the tissues. The test article and solvent control, DMSO, was prepared as a 0.5% (v/v) dilution in EPI-100-LLMM. The test article dilution was vortexed for at least 1 minute and then again for at least 1 minute prior to being applied onto the tissues. […]
The raw absorbance data were captured. The OD490 value of each melanin standard was determined. […] The corrected OD490 value of each melanin standard concentration was determined by subtracting the OD490 value of the blank well from the OD490 value of the melanin standard concentration. […]

For series [2], the system named is WM115 cells. Nature of the series: Preliminary annexin V-FITC assay (Example 7). Format: cell-based. As to conditions: 6-hour treatment, preliminary screen. Here is the method:
(§1) MeWo (ATCC® HTB-65™) and WM115 (ATCC® CRL-1675) cells were purchased from ATCC (Manassas, Va.) and maintained in the following: for MeWo:DMEM supplemented with 10% FBS; for WM115: RPMI 1640 supplemented with 10% FBS (10% FBS, 1% stabilized antibiotic anti-mycotic solution).
(§2) During the first set of studies, both MeWo and WM115 cells were treated with test compounds at 10 doses starting from 100 μM with 3-fold dilution. Staurosporine was used as positive control. After 6-hour treatment, cell apoptosis was assessed using an annexin V assay. The test compounds evaluated were CV-8684, CV-8685, CV-8686, CV-8687, and CV-8688.
(§3) For cell seeding, cells were harvested and the cell number was determined using Countess® cell counter. Cells were then diluted with culture medium to the desired density. 40 μL of cell suspension per well was added to the required number of wells in a 384-well plate (Corning 3712—clear bottom plate). The final cell density was 6,000 cells/well. After plating, the plates were incubated at 37° C., and 5% CO2 overnight.
(§4) For preparation of compound source plate, each test compound was dissolved in DMSO to 10 mM stock. 3-fold serial dilution was performed using an EVO200™ liquid handler (TECAN) to generate ten concentrations of test compound. 0.1% DMSO was employed as vehicle (negative) control. The compound source plate was then spun at room temperature at 1,000 RPM for 1 minute and agitated using a plate shaker for 2 minutes.
(§5) For compound treatment, 40 nL of compound were transferred from the compound source plate to the 384-well culture plate using liquid handler Echo550 (LabCyte Inc.). After 6-hour incubation, the plates were removed from the incubator for detection.
(§6) For the preliminary annexin V assay, the plates were removed from the incubator and allowed to equilibrate at room temperature for 15 minutes. Culture media was then removed. 20 μL of pre-mixed annexin V-FITC and Hoechst33342 dye working solution were added to each well. The cells were then incubated at room temperature for 20 minutes. […] Afterward, the plate was read using an Acumen eX3 plate reader. The relative activity was calculated according to the following formula: Activity (%)=100%×(CountAnnexin V/CountTotal cell), and EC50 was calculated using GraphPad Prism (v. 5.01).

For series [3], the system named is MeWo cells. Nature of the series: Preliminary annexin V-FITC assay (Example 7). Conditions: 6-hour treatment, preliminary screen. It counts as cell-based. Here is the method: as §1, §2, §3, §4, §5, §6
Series [4] relates to MeWo cells. As to the kind of experiment: Cell morphology after treatment (Example 6). Format: cell-based. As to conditions: 100 μM, 6 hours.
The test system of series [5] is WM115 cells. Nature of the series: Cell morphology after treatment (Example 6). Format: cell-based. Conditions: 100 μM, 6 hours.
Series [6] can be described thus: CellTiter-Glo cell viability assay (Example 9). Conditions: human; after 24-hour treatment; read-out: inhibition of cell viability. It counts as cell-based. Here is the method: (§7) CellTiter-Glo® 2.0 assay was purchased from Promega. Cell seeding, preparation of the compound source plate, and exposure of cells to test compounds were performed as described in Example 8.
(§8) CellTiter-Glo® reagents were thawed and equilibrated to room temperature before the experiment. 40 μL of CellTiter-Glo® reagent was then added to each well for detection (at 1:1 ratio to culture medium). The plates were then incubated at room temperature for 30 minutes and read using EnSpire (PerkinElmer) plate reader. The remaining activity was calculated according to the following formula: Remaining Activity (%)=100%×(Lumsample−Lumbkg)/(Lumvehicle−Lumbkg).
Background: Cellular ATP, detected with luciferase, serves as a proxy for viable cell number.

The nature of series [7]: CellTiter-Glo cell viability assay (Example 9). As to conditions: human; after 24-hour treatment; read-out: inhibition of cell viability. It counts as cell-based. The method, then:
as §7, §8
This is another data set of the same source.

Another series concerns yeast model. Conditions: cited from earlier work.

The EC50 is the concentration at which the effect is half-maximal. Lower therefore signals greater potency. Take `O=Cc1c(C(c2c[nH]c3ccccc23)C2CC2)[nH]c2ccccc12` (stereo not drawn) [AB12508]: the results for the EC50 in [1] (Table 1) and in series [1] (Table 2) were 15.4 µM and 14.2 µM, respectively. The compound further had a melanin concentration with MelanoDerm™ Skin Model of 25.26 µg/mL.
Compound `COC(=O)c1c(C(C)c2c[nH]c3ccccc23)[nH]c2ccccc12` (stereo not drawn) [Compound B (CV-8877)] gave an EC50 in series [1] (Table 2) of 13.8 µM. The melanin concentration in the series on MelanoDerm™ Skin Model was 25.99 µg/mL.
Turning to `CN[C@@H]1C[C@H]2O[C@@](C)([C@@H]1OC)n1c3ccccc3c3c4c(c5c6ccccc6n2c5c31)C(=O)NC4` [Staurosporine, reference compound], the “annexin V staining” value with WM115 cells [2] and with MeWo cells [3] was “greatly increased annexin V staining” each time. In addition, the cell morphology result in the series with MeWo cells [4] and in the series on WM115 cells [5] was “significantly affected” each time. Also, the cytotoxicity at 24 h in [6] and in [7] was 100% in each case.
For the compound `O=C1OC(c2c[nH]c3ccccc23)=C(c2c[nH]c3ccccc23)C1=O` [pityrialactone, Pityrialactone], the UV protective properties entry with yeast model is “confirmed”.
